Results published in patent publication US20230295157A1, “3-(1H-IMIDAZOL-2-YL)-2,3,8,8A-TETRAHYDROINDOLIZIN-5(1H)-ONE DERIVATIVES USEFUL AS FACTOR XIA INHIBITORS” (JANSSEN PHARMACEUTICA NV, priority 2020, published 2023).
Where two headings read alike, the source gives them in different places.

Experiments:
[1] = molecular target: Factor XIa (Homo sapiens (Human), UniProt P03951); experiment: Factor XIa inhibition assay (FLINT) utilizing a fluorophore-quencher pair peptide substrate; format: biochemical; settings: 30 min preincubation, kinetic reads over 30 min, read-out: FXIa Kin Inh IC50
Sequence of Factor XIa (P03951 388-625): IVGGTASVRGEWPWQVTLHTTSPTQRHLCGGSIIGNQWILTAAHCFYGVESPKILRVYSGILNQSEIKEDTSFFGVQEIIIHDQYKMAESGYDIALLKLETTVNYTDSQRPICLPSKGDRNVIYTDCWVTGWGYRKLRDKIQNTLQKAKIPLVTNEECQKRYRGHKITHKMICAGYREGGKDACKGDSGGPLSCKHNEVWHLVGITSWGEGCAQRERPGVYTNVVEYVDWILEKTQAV
Sequence of Factor XIa (P03951 19-387 partner): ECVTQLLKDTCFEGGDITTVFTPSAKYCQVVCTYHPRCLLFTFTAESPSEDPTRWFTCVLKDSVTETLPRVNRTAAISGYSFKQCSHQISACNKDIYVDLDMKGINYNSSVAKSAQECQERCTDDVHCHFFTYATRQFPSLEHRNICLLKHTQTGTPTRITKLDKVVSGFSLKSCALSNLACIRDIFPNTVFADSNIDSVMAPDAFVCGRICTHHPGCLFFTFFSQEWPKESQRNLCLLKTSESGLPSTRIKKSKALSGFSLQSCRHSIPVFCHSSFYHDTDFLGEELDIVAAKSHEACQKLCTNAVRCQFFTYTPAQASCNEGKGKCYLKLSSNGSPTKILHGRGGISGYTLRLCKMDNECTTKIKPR
From the text: Biological Example 1: Factor XIa Inhibition Assay Utilizing a Fluorophore-Quencher Pair Peptide Substrate
A fluorescence intensity (FLINT) based assay was used to monitor inhibition of Factor XIa. The peptide substrate, 5Fam-[…]-K5Tamra (purchased from New England Peptide) was chosen based on the FXI sequence. Conversion of zymogen […]. The custom peptide used in this assay was based on the Arg146 cleavage site of FXI. The peptide substrate was designed with a fluorophore-quencher pair, where the fluorescence is quenched until FXIa cleaves the 8-mer peptide after the Arg residue.
The Factor XIa FLINT assay was used with the following 5Fam-[…]-K5Tamra assay buffer: 50 mM Tris, pH 7.5, 100 mM NaCl, 5 mM CaCl2), 0.1 mg/mL BSA, 0.03% CHAPS. Assay buffer was prepared by mixing all ingredients fresh. 5Fam-[…]-K5Tamra peptide substrate was first prepared at 10 mM in 100% DMSO, then diluted to 3 mM in 100% DMSO. Assay buffer was then added directly to the 3 mM stock of substrate to prepare the 30 μM 2× working concentration (15 μM final concentration). The 2×Factor XIa stock solution was prepared by diluting 6.562 μM stock in 1×assay buffer for a 200 μM working stock solution (100 μM final concentration).
Test compound(s) were run in an 11-point, 3-fold serial dilution with a final top compound concentration of 100 nM. Final DMSO in assay was 2%. FXIa was preincubated with compound for 30-minutes and then substrate was added to initiate the reaction. The assay was run with kinetic (KIN) reads at 5 min intervals over 30 minutes. The time course was linear using 100 μM FXIa greater than 30 minutes. More specifically, the assay was run as follows: • 100 nL of 0.01 mM test compound was dispensed into black 384 well non-binding Greiner BioOne 784900 plate for 0.1 μM final concentration; • 5 μL of 1×assay buffer was dispensed to column 24 (low control) and 5 μL 2×Factor XIa solution was dispensed to columns 1-23 (column 23 high control); • the plate was centrifuged with a “cover” plate at 500 rpm for 1 min • the plate was pre-incubated for 30 minutes at room temperature with plate covered; • 5 μL of 2×5Fam-[…]-K5Tamra peptide substrate was dispensed into the entire plate, columns 1-24; • the plate was centrifuged with a “cover” plate at 500 rpm for 1 min; • the plate was read monitoring fluorescence intensity on the BMG PHERAStar at room temperature, using fluorescence module 485 nm/520 nm.
(§1) Percent inhibition (IC50) curves were generated per compound tested, and data was analyzed using a 4-parameter logistic fit using GeneData Screener. The relative fluorescence unit (RFU) values were normalized to percent inhibition using the following equation:
% inhibition=((HC-LC)−(compound−LC)/(HC-LC))*100
where LC—low control=mean signal of no Factor XIa or 100% inhibition of Factor XIa; HC—high control=mean signal of Factor XIa+5Fam-[…]-K5Tamra peptide substrate with DMSO only.
(§2) An 11-point dose response curve for the test compound(s) was generated using GENDATA to determine IC50 value based on the following equation:
Y=Bottom+(Top-Bottom)/(1+10^((logIC50-X)*HillSlope))
where Y is the % inhibition in the presence of X inhibitor concentration, Top=high control=mean signal of Factor XIa+5Fam-[…] K5Tamra peptide substrate with DMSO only; Bottom=low control−mean signal of no Factor XIa or 100% inhibition of Factor XIa; HillSlope—Hill coefficient; and IC50=concentration of compound with 50% inhibition in relation to top/high control.
Representative compounds of the present invention were tested according to the procedure described in Biological Example 1 and Biological Example 2 above, with results as listed in Table 3, below.

[2] = molecular target: human plasma kallikrein (Homo sapiens (Human), UniProt P03952); experiment: Kallikrein inhibition assay (FLINT) utilizing a quenched AMC peptide substrate; format: biochemical; settings: 30 min preincubation, kinetic reads over 30 min, Z-Gly-Pro-Arg-AMC substrate 50 μM; read-out: Kallikrein Kin Inh IC50
Sequence of human plasma kallikrein (P03952 391-638): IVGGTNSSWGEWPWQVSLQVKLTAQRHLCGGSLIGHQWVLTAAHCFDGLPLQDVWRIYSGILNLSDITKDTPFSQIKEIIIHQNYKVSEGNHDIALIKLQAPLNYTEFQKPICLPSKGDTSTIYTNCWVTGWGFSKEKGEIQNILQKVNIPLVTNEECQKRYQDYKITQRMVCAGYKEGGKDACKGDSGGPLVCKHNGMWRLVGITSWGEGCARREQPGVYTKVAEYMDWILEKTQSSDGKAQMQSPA
Sequence of human plasma kallikrein (P03952 20-390 partner): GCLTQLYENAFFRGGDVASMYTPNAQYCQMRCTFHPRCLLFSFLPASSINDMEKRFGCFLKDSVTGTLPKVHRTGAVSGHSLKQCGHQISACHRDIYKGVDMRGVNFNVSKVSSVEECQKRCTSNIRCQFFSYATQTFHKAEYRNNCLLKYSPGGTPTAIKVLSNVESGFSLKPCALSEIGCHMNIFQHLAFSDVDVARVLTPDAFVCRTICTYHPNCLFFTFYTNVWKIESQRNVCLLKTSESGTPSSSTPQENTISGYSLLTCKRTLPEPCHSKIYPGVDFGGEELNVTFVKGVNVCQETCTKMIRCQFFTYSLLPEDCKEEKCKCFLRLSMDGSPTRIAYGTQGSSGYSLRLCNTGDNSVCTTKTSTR
Procedure: Biological Example 2: Kallikrein Inhibition Assay Utilizing a Quenched AMC Peptide Substrate A fluorescence intensity (FLINT) based assay was used to monitor inhibition of human plasma kallikrein.
The Kallikrein FLINT assay was used with the following Z-Gly-Pro-Arg-AMC assay buffer: 50 mM Tris, pH 7.5, 100 mM NaCl, 5 mM CaCl2), 0.1 mg/mL BSA, 0.03% CHAPS. Assay buffer was prepared by mixing all ingredients fresh. 2×Z-Gly-Pro-Arg-AMC peptide substrate was prepared by diluting 10 mM stock into 1×assay buffer for a 100 μM working concentration (50 μM final concentration). The 2×kallikrein stock solution was prepared by diluting 14.76 μM stock in 1×assay buffer for a 4 nM working stock solution (2 nM final concentration).
Test compound(s) were run in an 11-point, 3-fold serial dilution with a final top compound concentration of 1 μM. Final DMSO in assay was 2%. Plasma kallikrein was pre-incubated for 30-minute with compound and then 50 μM substrate was added to initiate the reaction. The assay was run with kinetic (KIN) reads at 5 min intervals over 30 minutes. […] More specifically, the assay was run as follows: • 100 nL of 0.1 mM test compound was dispensed into black 384-well non-binding Greiner BioOne 784900 plate for 1 μM final concentration; • 5 μL of 1×assay buffer was dispensed to columns 24 (low control) and 5 μL 2×human kallikrein enzyme solution was dispensed to columns 1-23 (column 23 high control); • the plate was centrifuged with a “cover” plate at 500 rpm for 1 min • the plate was pre-incubated for 30 minutes at room temperature with plate covered; • 5 μL of 2×Z-Gly-Pro-Arg-AMC peptide substrate was dispensed into the entire plate, columns 1-24; • the plate was centrifuged with a “cover” plate at 500 rpm for 1 min; • the plate was read monitoring fluorescence intensity on the BMG PHERAStar at room temperature, using fluorescence module 340 nm/440 nm.
as §1
% inhibition=((HC-LC)−(compound-LC)\(HC-LC))*100 where LC—low control=mean signal of human kallikrein enzyme or 100% inhibition of human kallikrein enzyme; HC—high control=mean signal of Factor XIa+Z-Gly-Pro-Arg-AMC peptide substrate with DMSO only.
as §2
Y=Bottom+(Top-Bottom)/(1+10^((logIC50−X)*HillSlope)) where Y is the % inhibition in the presence of X inhibitor concentration, Top=high control=mean signal of human kallikrein enzyme+Z-Gly-Pro-Arg-AMC peptide substrate with DMSO only; Bottom=low control−mean signal of no human kallikrein enzyme or 100% inhibition of human kallikrein enzyme; HillSlope—Hill coefficient; and IC50=concentration of compound with 50% inhibition in relation to top/high control.

[3] = 5Fam-[…]-K5Tamra substrate 15 μM
[4] = 5Fam-KLTRAETV-K5Tamra substrate 15 μM

Structure (SMILES)	IC50 [1, 3] [nM]	IC50 [2] [nM]	IC50 [1, 4] [nM]
O=C1C=C(c2c(-n3cnnn3)ccc(Cl)c2F)C[C@H]2CC[C@H](c3ncc(-c4ccnc(COCP(=O)(O)O)c4F)[nH]3)N12 (relative stereo) [Example 37, (((4-(24(3R*,8aR)-7-(3-chloro-2-fluoro-6-(1H-tetrazol-1-yl)phenyl)-5-oxo-1,2,3,5,8,8a-hexahydroindolizin-3-yl)-1H-imidazol-5-yl)-3-fluoropyridin-2-yl)methoxy)methyl)phosphonic acid]	1.3	55.8	–
C[C@@H](O)c1nccc(-c2[nH]c([C@@H]3CC[C@@H]4CC(c5cc(Cl)ccc5-n5cnnn5)=CC(=O)N43)nc2F)c1F (relative stereo) [Example 45, (3S,8aR)-7-(5-chloro-2-(1H-tetrazol-1-yl)phenyl)-3-(4-fluoro-5-(3-fluoro-2-((R*)-1-hydroxyethyl)pyridin-4-yl)-1H-imidazol-2-yl)-2,3,8,8a-tetrahydroindolizin-5(1H)-one]	4.4	41.3	–
C[C@H](O)c1nccc(-c2[nH]c([C@@H]3CC[C@@H]4CC(c5cc(Cl)ccc5-n5cnnn5)=CC(=O)N43)nc2F)c1F (relative stereo) [Example 46, (3S,8aR)-7-(5-chloro-2-(1H-tetrazol-1-yl)phenyl)-3-(4-fluoro-5-(3-fluoro-2-((S*)-1-hydroxyethyl)pyridin-4-yl)-1H-imidazol-2-yl)-2,3,8,8a-tetrahydroindolizin-5(1H)-one]	5.4	35.5	–
[2H][C@]12CC[C@@H](c3ncc(-c4ccnc(CO)c4F)[nH]3)N1C(=O)C=C(c1c(-n3cnnn3)ccc(Cl)c1F)C2 (relative stereo) [Example 47, (3S,8aR*)-7-(3-Chloro-2-fluoro-6-(1H-tetrazol-1-yl)phenyl)-3-(5-(3-fluoro-2-(hydroxymethyl)pyridin-4-yl)-1H-imidazol-2-yl)-2,3,8,8a-tetrahydroindolizin-5(1H)-one-8a-d]	5.7	42.6	–
[2H][C@@]12CC[C@@H](c3ncc(-c4ccnc(CO)c4F)[nH]3)N1C(=O)C=C(c1c(-n3cnnn3)ccc(Cl)c1F)C2 (relative stereo) [Example 48, (3S*,8aS)-7-(3-chloro-2-fluoro-6-(1H-tetrazol-1-yl)phenyl)-3-(5-(3-fluoro-2-(hydroxymethyl)pyridin-4-yl)-1H-imidazol-2-yl)-2,3,8,8a-tetrahydroindolizin-5(1H)-one-8a-d]	22.5	72.4	–
O=C1C=C(c2cc(Cl)ccc2-n2cc(C(F)(F)F)nn2)C[C@H]2CC[C@@H](c3ncc(-c4ccc5[nH]c(=O)cnc5c4F)[nH]3)N12 (relative stereo) [Example 59, 6-(2-((3S*,8aR*)-7-(5-chloro-2-(4-(trifluoromethyl)-1H-1,2,3-triazol-1-yl)phenyl)-5-oxo-1,2,3,5,8,8a-hexahydroindolizin-3-yl)-1H-imidazol-5-yl)-5-fluoroquinoxalin-2(1H)-one]	3.1	12	–
O=C1C=C(c2cc(Cl)ccc2-n2cc(C(F)(F)F)nn2)C[C@H]2CC[C@@H](c3ncc(-c4ccnc(CO)c4F)[nH]3)N12 (relative stereo) [Example 64, (3S,8aR*)-7-(5-chloro-2-(4-(trifluoromethyl)-1H-1,2,3-triazol-1-yl)phenyl)-3-(5-(3-fluoro-2-(hydroxymethyl)pyridin-4-yl)-1H-imidazol-2-yl)-2 3,8,8a-tetrahydroindolizin-1H-one]	11.5	156	–
O=C1C=C(c2c(-n3cnnn3)ccc(Cl)c2F)CC2CC[C@@H](c3nc(F)c(-c4ccnc(N[C@H]5CCOC5)c4F)[nH]3)N12 (relative stereo) [Example 76, (3S*)-7-(3-chloro-2-fluoro-6-(1H-tetrazol-1-yl)phenyl)-3-(4-fluoro-5-(3-fluoro-2-(((S)-tetrahydrofuran-3-yl)amino)pyridin-4-yl)-1H-imidazol-2-yl)-2,3,8,8a-tetrahydroindolizin-5(1H)-one]	0.7	1.9	–
COc1ccc(NC(=O)C2CC2)c(-c2c[nH]c([C@@H]3CC[C@@H]4CC(c5c(-n6cnnn6)ccc(Cl)c5F)=CC(=O)N43)n2)c1 [Example 257, N-[2-[2-[(3S,8aR)-7-[3-Chloro-2-fluoro-6-(tetrazol-1-yl)phenyl]-5-oxo-2,3,8,8a-tetrahydro-1H-indolizin-3-yl]-1H-imidazol-4-yl]-4-methoxy-phenyl]cyclopropanecarboxamide]	–	–	0.5
COc1ccc(NC(=O)C2CC2)c(-c2c[nH]c([C@@H]3CC[C@H]4CC(c5c(-n6cnnn6)ccc(Cl)c5F)=CC(=O)N43)n2)c1 [Example 271, N-(2-(2-((3S,8aS)-7-(3-Chloro-2-fluoro-6-(1H-tetrazol-1-yl)phenyl)-5-oxo-1,2,3,5,8,8a-hexahydroindolizin-3-yl)-1H-imidazol-4-yl)-4-methoxyphenyl)cyclopropanecarboxamide]	–	–	0.8
COc1ccc(NC(=O)C2CC2)c(-c2c[nH]c([C@@H]3CCC4CC(c5c(-n6cnnn6)ccc(Cl)c5F)=CC(=O)N43)n2)c1 (stereo partly drawn) [Example 279, N-(2-(2-((3S)-7-(3-Chloro-2-fluoro-6-(1H-tetrazol-1-yl)phenyl)-5-oxo-1,2,3,5,8,8a-hexahydroindolizin-3-yl)-1H-imidazol-4-yl)-4-methoxyphenyl)cyclopropanecarboxamide]	–	–	0.9
